Values of other authors as cited in patent US6849589B2, “Cleaning composition” (3M Innovative Properties Company, priority 2001, dated 2005).

Settings: in water, at about 20° C.

water solubility | Compound
about 0.1 weight percent | CCCCCCCCO [Example 1-octanol, 1-octanol]
about 0.124 weight percent | CCCCCCCCN1CCCC1=O [N-octyl pyrrolidone]
about 0.05 weight percent | CC(C)CC(=O)CC(C)C [di-isobutyl ketone]
about 0.06 weight percent | CC(C)CCCCCO [isooctyl alcohol]
